Patent US12448388B2, “PRMT5 inhibitors and uses thereof” (Gilead Sciences, Inc., priority 2023, dated 2025)
Read-outs that look alike come from different tables or passages of the source.

System: HCT116 MTAP-deleted cell lines
Test: Cell viability assay (CellTiter-Glo, 7 days), HCT116 MTAP-deleted
Format: cell-based
Conditions: Homo sapiens, HCT-116
Outline: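 Luminescent ATP readout (CellTiter-Glo) after 7 days of continuous compound exposure gives the CC50 value. Cells were plated onto pre-dispensed DMSO dilution series of the PRMT5 inhibitors and kept at 37 °C in 5% CO2.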

[1] = cell viability, HCT116 MTAP-deleted, class symbols, read-out: CC50
[2] = cell viability assay, HCT116 MTAP-deleted, class symbols, read-out: CC50

Compound C[C@H]1CN(C(=O)c2cc3c(cc2F)nc(N)c2cncn23)[C@H]2c3ccccc3C[C@H]2O1 (racemic) [Ff-55, Rac-(4-amino-7-fluoroimidazo[1,5-a]quinoxalin-8-yl)((2S,4aS,9aR)-2-methyl-2,3,9,9a-tetrahydroindeno[2,1-b][1,4]oxazin-4(4aH)-yl)methanone] has a CC50 [1] of less than 100 nM.

Work on COc1cc(-c2cnn(C(F)(F)F)c2)ccc1CN(C)C(=O)c1cc2c(cc1F)nc(N)c1cncn12 [Ff-554, 4-amino-N-(4-(1-(trifluoromethyl)-1H-pyrazol-4-yl)-2-methoxybenzyl)-7-fluoro-N-methylimidazo[1,5-a]quinoxaline-8-carboxamide] yielded a CC50 [2] of 100 to 1000 nM.

For Nc1nc2cc(F)c(C(=O)N3CC[C@@H]4Oc5cc(C(F)(F)F)ccc5[C@@H]43)cc2n2cncc12 [Ff-66, (4-amino-7-fluoroimidazo[1,5-a]quinoxalin-8-yl)((3aS,8bS)-6-(trifluoromethyl)-2,3,3a,8b-tetrahydro-1H-benzofuro[3,2-b]pyrrol-1-yl)methanone], the CC50 [1] was 100 to 1000 nM.

C[C@H]1CN(C(=O)c2cc3c(cc2F)nc(N)c2cncn23)[C@@H]2c3ccc(C(F)(F)F)cc3C[C@@H]2O1 (single isomer, unassigned) [Ff-80] showed a CC50 [1] of less than 100 nM.

For Nc1nc2cc(Cl)c(C(=O)N3CC[C@H]4C[C@@H]3c3c(F)cc(Cl)cc34)cc2n2cncc12 [Ff-488, (4-amino-7-chloroimidazo[1,5-a]quinoxalin-8-yl)((1R,5S)-7-chloro-9-fluoro-1,3,4,5-tetrahydro-2H-1,5-methanobenzo[c]azepin-2-yl)methanone], the CC50 [2] was 100 to 1000 nM.

In the case of CN(C(=O)c1cc2c(cn1)nc(N)c1cncn12)[C@@H](c1ccc(C(F)(F)F)cc1Cl)C(F)F [Ff-571, (S)-4-amino-N-(1-(2-chloro-4-(trifluoromethyl)phenyl)-2,2-difluoroethyl)-N-methylimidazo[1,5-a]pyrido[3,4-e]pyrazine-8-carboxamide], the CC50 [2] is reported as 100 to 1000 nM.

For CN(C(=O)c1ccc2nc(N)c3cncn3c2c1)[C@@H]1COc2cc(C#CC3(C(F)F)CC3)ccc21 [Ff-521, (S)-4-amino-N-(6-((1-(difluoromethyl)cyclopropyl)ethynyl)-2,3-dihydrobenzofuran-3-yl)-N-methylimidazo[1,5-a]quinoxaline-8-carboxamide], the CC50 [2] was 100 to 1000 nM.

Work on Cc1ncc2c(N)nc3cnc(C(=O)N4CCC[C@@H]5Oc6cc(OC(F)(F)F)c(F)cc6[C@@H]54)cc3n12 [Ff-376, (4-amino-1-methylimidazo[1,5-a]pyrido[3,4-e]pyrazin-8-yl)((4aS,9bS)-8-fluoro-7-(trifluoromethoxy)-3,4,4a,9b-tetrahydrobenzofuro[3,2-b]pyridin-1(2H)-yl)methanone] yielded a CC50 [2] of less than 100 nM.

Compound Nc1nc2cc(F)c(C(=O)N3CCO[C@@H]4Cc5cc(C(F)F)c(F)cc5[C@@H]43)cc2n2cncc12 [Ff-168, (4-amino-7-fluoroimidazo[1,5-a]quinoxalin-8-yl)((4aS,9aR)-7-(difluoromethyl)-6-fluoro-2,3,9,9a-tetrahydroindeno[2,1-b][1,4]oxazin-4(4aH)-yl)methanone] has a CC50 [1] of less than 100 nM.

For Nc1nc2cnc(C(=O)N3CCC[C@@H]4Oc5cc(C(F)(F)F)c(Cl)cc5[C@@H]43)cc2n2cncc12 [Ff-259, (4-aminoimidazo[1,5-a]pyrido[3,4-e]pyrazin-8-yl)((4aS,9bS)-8-chloro-7-(trifluoromethyl)-3,4,4a,9b-tetrahydrobenzofuro[3,2-b]pyridin-1(2H)-yl)methanone], the CC50 [1] was less than 100 nM.

CN(Cc1ccc2c(c1)OC(F)(F)O2)C(=O)c1cc2c(cc1F)nc(N)c1cncn12 [Ff-124, 4-amino-N-((2,2-difluorobenzo[d][1,3]dioxol-5-yl)methyl)-7-fluoro-N-methylimidazo[1,5-a]quinoxaline-8-carboxamide] was tested, and the CC50 [1] was 100 to 1000 nM.

Nc1nc2ccc(C(=O)N3CCOC[C@@H]3c3ccc(C(F)(F)F)cc3)cc2n2cncc12 [Ff-84, (S)-(4-aminoimidazo[1,5-a]quinoxalin-8-yl)(3-(4-(trifluoromethyl)phenyl)morpholino)methanone] gave a CC50 [1] of 100 to 1000 nM.

In the case of CN(C(=O)c1cc2c(cc1F)nc(N)c1cncn12)[C@@H]1COc2cc([C@@H]3C[C@H]3c3ccn(C(F)F)n3)ccc21 [Ff-477, 4-amino-N—((S)-6-((1R,2R)-2-(1-(difluoromethyl)-1H-pyrazol-3-yl)cyclopropyl)-2,3-dihydrobenzofuran-3-yl)-7-fluoro-N-methylimidazo[1,5-a]quinoxaline-8-carboxamide], the CC50 [2] is reported as less than 100 nM.

With C[C@H](c1ccc(C(F)(F)F)cc1F)N(C)C(=O)c1cc2c(cc1F)nc(N)c1cncn12 [Ff-534, (R)-4-amino-7-fluoro-N-(1-(2-fluoro-4-(trifluoromethyl)phenyl)ethyl)-N-methylimidazo[1,5-a]quinoxaline-8-carboxamide] the CC50 [2] was less than 100 nM.

With Nc1nc2cc(F)c(C(=O)N3CCCC[C@@H]3c3ccc(C(F)(F)F)cc3F)cc2n2cncc12 (single isomer, unassigned) [Ff-151] the CC50 [1] was less than 100 nM.

Compound C[C@H]1CN(C(=O)c2cc3c(cc2F)nc(N)c2cncn23)[C@H]2c3cc(F)c(OC(F)F)cc3C[C@H]2O1 [Ff-175, (4-amino-7-fluoroimidazo[1,5-a]quinoxalin-8-yl)((2S,4aS,9aR)-7-(difluoromethoxy)-6-fluoro-2-methyl-2,3,9,9a-tetrahydroindeno[2,1-b][1,4]oxazin-4(4aH)-yl)methanone] has a CC50 [1] of less than 100 nM.

In the case of [2H]C([2H])([2H])[C@H]1CN(C(=O)c2cc3c(cc2F)nc(N)c2cncn23)[C@H]2c3ccc(C(F)(F)F)cc3C[C@H]2O1 (single isomer, unassigned) [Ff-639], the CC50 [2] is reported as less than 100 nM.

C[C@@H]1COC[C@H](c2ccc(C(F)(F)F)cn2)N1C(=O)c1cc2c(cn1)nc(N)c1cncn12 [Ff-142, (4-aminoimidazo[1,5-a]pyrido[3,4-e]pyrazin-8-yl)((3R,5S)-3-methyl-5-(5-(trifluoromethyl)pyridin-2-yl)morpholino)methanone] showed a CC50 [1] of less than 100 nM.

CN(C(=O)c1cc2c(cc1F)nc(N)c1cncn12)C1CCc2nc(Br)ccc21 (stereo not shown) [Ff-209, 4-amino-N-(2-bromo-6,7-dihydro-5H-cyclopenta[b]pyridin-5-yl)-7-fluoro-N-methylimidazo[1,5-a]quinoxaline-8-carboxamide] was tested, and the CC50 [1] was 100 to 1000 nM.

Work on CN(C(=O)c1cc2c(cc1F)nc(N)c1cncn12)[C@@H]1COc2cc(C34CC(F)(C3)C4)ccc21 [Ff-453, 4-amino-7-fluoro-N-[(3S)-6-(3-fluoro-1-bicyclo[1.1.1]pentanyl)-2,3-dihydrobenzofuran-3-yl]-N-methyl-imidazo[1,5-a]quinoxaline-8-carboxamide] yielded a CC50 [2] of less than 100 nM.

Compound Nc1nc2cc(F)c(C(=O)N3CC(F)(F)CC[C@H]3c3ccc(C(F)(F)F)cn3)cc2n2cncc12 (single isomer, unassigned) [Ff-243] has a CC50 [1] of 100 to 1000 nM.

COC1(C#Cc2ccc3c(c2)OC[C@H]3N(C)C(=O)c2ccc3nc(N)c4cncn4c3c2)CC1 [Ff-531, (S)-4-amino-N-(6-((1-methoxycyclopropyl)ethynyl)-2,3-dihydrobenzofuran-3-yl)-N-methylimidazo[1,5-a]quinoxaline-8-carboxamide] showed a CC50 [2] of 100 to 1000 nM.

CO[C@@H]1COCC[C@H]1N(Cc1ccc(C(F)(F)F)cc1F)C(=O)c1cc2c(cc1F)nc(N)c1cncn12 [Ff-273, 4-amino-7-fluoro-N-(2-fluoro-4-(trifluoromethyl)benzyl)-N-((3S,4R)-3-methoxytetrahydro-2H-pyran-4-yl)imidazo[1,5-a]quinoxaline-8-carboxamide] showed a CC50 [1] of less than 100 nM.

Nc1nc2cc(Cl)c(C(=O)N3CC[C@H]4C[C@@H]3c3ccc(Cl)cc34)cc2n2cncc12 [Ff-599, (4-amino-7-chloroimidazo[1,5-a]quinoxalin-8-yl)((1R,5S)-7-chloro-1,3,4,5-tetrahydro-2H-1,5-methanobenzo[c]azepin-2-yl)methanone] gave a CC50 [2] of less than 100 nM.

For Nc1nc2cc(F)c(C(=O)N3CC4(CC[C@H]3c3ccc(C(F)(F)F)cc3)CC4)cc2n2cncc12 (single isomer, unassigned) [Ff-155], the CC50 was 100 to 1000 nM.

With Nc1nc2cc(F)c(C(=O)N3CCOC[C@@H]3c3ccc(C(F)(F)F)cn3)cc2n2cncc12 (single isomer, unassigned) [Ff-547] the CC50 [2] was less than 100 nM.

Compound Nc1nc2cc(F)c(C(=O)N3CCO[C@@H]4Cc5cc(-c6cnn(C(F)(F)F)c6)ccc5[C@@H]43)cc2n2cncc12 [Ff-234, (4-amino-7-fluoroimidazo[1,5-a]quinoxalin-8-yl)((4aS,9aR)-7-(1-(trifluoromethyl)-1H-pyrazol-4-yl)-2,3,9,9a-tetrahydroindeno[2,1-b][1,4]oxazin-4(4aH)-yl)methanone] has a CC50 [1] of 100 to 1000 nM.

C[C@H]1CN(C(=O)c2cc3c(cc2F)nc(N)c2cnc(Br)n23)[C@H]2c3ccc(C(F)(F)F)cc3C[C@H]2O1 (single isomer, unassigned) [Ff-496] showed a CC50 [2] of 100 to 1000 nM.

Work on CN(C(=O)c1cc2c(cc1F)nc(N)c1cncn12)[C@@H]1COc2cc(C#CC3(F)CCOC3)ccc21 (stereo partly drawn) [Ff-446, 4-amino-7-fluoro-N-[(3S)-6-[2-(3-fluorotetrahydrofuran-3-yl)ethynyl]-2,3-dihydrobenzofuran-3-yl]-N-methyl-imidazo[1,5-a]quinoxaline-8-carboxamide] yielded a CC50 [2] of less than 100 nM.

Nc1nc2cc(F)c(C(=O)N3CCC[C@@H]4Oc5cc(OC(F)(F)F)c(F)cc5[C@@H]43)cc2n2cncc12 (racemic) [Ff-333, Rac-(4-amino-7-fluoroimidazo[1,5-a]quinoxalin-8-yl)((4aS,9bS)-8-fluoro-7-(trifluoromethoxy)-3,4,4a,9b-tetrahydrobenzofuro[3,2-b]pyridin-1(2H)-yl)methanone] was tested, and the CC50 [1] was less than 100 nM.

For Cc1ncn2c1c(N)nc1cnc(C(=O)N3CC[C@H]4C[C@@H]3c3ccc(C(F)(F)F)cc3O4)cc12 [Fg-64, (4-amino-3-methylimidazo[1,5-a]pyrido[3,4-e]pyrazin-8-yl)((2S,6R)-9-(trifluoromethyl)-3,4-dihydro-2H-2,6-methanobenzo[b][1,5]oxazocin-5(6H)-yl)methanone], the CC50 [2] was less than 100 nM.
